Data set [1] deals with Water-immersion induced stress ulcer. The data set is described as follows: Water-immersion induced stress ulcer. The conditions noted are these: rats, single dose 30 mg/kg in 0.5% CMC one hour prior to stressing (water immersion, 6 h); for inhibition in vivo at 30 mg/kg: Rattus norvegicus. The class given is in vivo, Wister male rats. The procedure: Wister male rats (11-week age) fasted for 18 hours were placed in a restraint cage, which was in turn immersed to a depth of the pectoral region in water at 20 to 22° C. to leave the rats under stress for six hours. Then, the rats were drawn up from the water and put down by vertebral dislocation. Afterwards, the stomach was removed, infused with 5 ml of a 5% aqueous solution of formalin and was wholly immersed in the same solution for 30 minutes for fixation. The fixed sample was dissected along the curvature ventriculi major, and the ulcer regions were measured along their major length (in mm) by means of slide calipers. The total sum of the measurements per rat is a value of ulcer index.
The compounds under test shown in TABLE 3, suspended in 0.5% carboxymethylcellulose (CMC), were administered to the rats at a single dose of 30 mg/kg body weight of the compound one hour prior to the stressing. To a control group, only 0.5% CMC was administered. The antiulcer activity was calculated according to the following equation: [formula]

The subject of data set [2] is Ethanol-induced ulcer. The data set is described as follows: Ethanol-induced ulcer. The class given is in vivo, Donryu masculine rats. The conditions noted are these: rats; 100% ethanol 5 ml/kg orally; compound in 0.5% CMC orally at 5 ml/kg; one hour. The procedure: Five (5) ml/kg of 100% ethanol was orally administered to Donryu masculine rats fasted for 48 hours and dehydrated for 24 hours. Then, the compounds under test, suspended in 0.5% CMC, were orally administered to the rats at a dose of 5 ml/kg body weight. One hour later, the rats were put down in a similar manner as mentioned above to remove and treat the stomach.

Data set [3] relates to Helicobacter pylori HI-0001. The data set is described as follows: Antimicrobial activity, agar plate dilution method (strain HI-0001). The conditions noted are these: HI0001, 48 h, two days at 37° C., read-out: MINIMUM GROWTH INHIBITION CONCENTRATION
The class given is cell-based. The source says: (§1) Helicobacter pylori is Gram negative microaerophile which has been recently isolated from human tunica mucosa ventriculi and seems to serve for pathopoiesis and recurrence of ulcer in alimentary canal. The compounds of formula (I) show an antimicrobial activity to inhibit the growth of Helicobacter pylori.
(§2) The media used were that of Muller-Hinton liquid medium (BBL) containing 7% horse serum, and of Heart-Infusin agar medium (Difco) containing 5% horse defibrinized blood. The culture was incubated for two days at 37° C. using Gaspack (BBL) without a catalyst.

For data set [4], the system named is Helicobacter pylori HI-0015. The data set is described as follows: Antimicrobial activity, agar plate dilution method (strain HI-0015). The class given is cell-based. Particulars: HI0015, 48 h, two days at 37° C., read-out: MINIMUM GROWTH INHIBITION CONCENTRATION
Excerpt: as §1, §2

The nature of data set [5]: Acute toxicity. It is filed as in vivo. The conditions noted are these: mice, three per group.

The results in this text go back to patent publication US5171746A, “Thiazole and imidazole derivatives and antiulcer composition containing same” (priority 1990, dated 1992).

Converted amounts (≈) assume the structure as drawn.

`[O-][S+](CCN1CCOCC1)c1nc2cc(Cl)ccc2s1` (stereo not shown) [Example 32, 5-chloro-2-[(2-morpholinoethyl)sulfinyl]benzothiazole]: in data set [1], testing at 30 mg/kg gave an inhibition in vivo of 83.1%. The molecule also yielded a depression of erosion in data set [2] of 93.0%. In addition, the MIC in data set [3] came out at 1.56 µg/mL (≈ 4.71 µM); in data set [4] it was 3.13 µg/mL (≈ 9.46 µM).
Regarding `CCOCC[S+]([O-])c1nc2ccc(OC)cc2[nH]1` (stereo not shown) [Example 72, 5-methoxy-2-[(2-ethoxyethyl)sulfinyl]benzimidazole], at 30 mg/kg the inhibition in vivo in data set [1] was 65.6%.
The same measure, in the same setting: the result for `CCOCC[S+]([O-])c1nc(-c2cccnc2)cs1` (stereo not shown) [Example 2, 2-[(2-ethoxyethyl)sulfinyl]-4-(3-pyridyl)thiazole] reads 72.5%.
For `[O-][S+](CCN1CCOCC1)c1nc2ccc(Cl)cc2[nH]1` (stereo not shown) [Example 49, 5-chloro-2-[(2-morpholinoethyl)sulfinyl]benzimidazole], in data set [1], the inhibition in vivo at 30 mg/kg turned out to be 63.6%.
The same measure, in the same setting: as for `O=C(NCCCl)NCC[S+]([O-])c1nc2cc(Cl)ccc2s1` (stereo not shown) [Example 24, N-(5-chlorobenzothiazol-2-y1)sulfinylethyl--N'-(2-chloroethyl)urea], the figure is 70.1%.
In data set [1], `CCNC(=S)NCCSc1nc2cc(Cl)ccc2s1` [Example 25, N-(5-chlorobenzothiazol-2-yl)thioethyl--N'-ethylthiourea] gave an inhibition in vivo at 30 mg/kg of 64.2%. Further, the MIC in data set [3] and in data set [4] was 0.025 µg/mL (≈ 0.0753 µM) throughout.
`CC(C)N(CC[S+]([O-])c1nc(-c2cccnc2)cs1)C(C)C` (stereo not shown) [Example 8]: 30 mg/kg produced 70.5% inhibition in vivo in data set [1].
In the case of `[O-][S+](CCOCCCl)c1nc2cc(Cl)ccc2s1` (stereo not shown) [Example 67, 5-chloro-2-{[2-(2-chloroethoxy)ethyl]sulfinyl}benzothiazole], the “Inhibition (%)” value in data set [1] was found to be 53.3%.
`CC1COc2c(N3CCN(C)CC3)c(F)cc3c(=O)c(C(=O)O)cn1c23` (stereo not shown) [Ofloxacin, reference compound]: the MIC in data set [3] and in data set [4] was 0.78 µg/mL (≈ 2.16 µM) in each case.
Molecule `CCOCC[S+]([O-])c1nc2cccc(Cl)c2s1` (stereo not shown) [Example 61, 7-chloro-2-[(2-ethoxyethyl)sulfinyl]benzothiazole] yielded an inhibition in vivo at 30 mg/kg in data set [1] of 61.8%.
On the same count and under the same terms, as for `CCN=C(NC#N)NCC[S+]([O-])c1nc2cc(Cl)ccc2s1` (stereo not shown) [Example 28, N-(5-chlorobenzothiazol-2-yl)sulfinylethyl--N'-cyano--N"-ethylguanidine], the figure is 57%.
On to `CN1CCCC1CC[S+]([O-])c1nc2cc(Cl)ccc2s1` (stereo not shown) [Example 47, 5-chloro-2-{[2-(N-methylpyrrolidin-2-Y1)ethyl]sulfinyl}benzothiazole], for which the MIC turned out to be 0.39 µg/mL (≈ 1.19 µM) in data set [3] and 3.13 µg/mL (≈ 9.52 µM) in data set [4].
Consider `Clc1ccc2sc(SCCN3CCOCC3)nc2c1` [Example 31, 5-chloro-2-[(2-morpholinoethyl)thio]benzothiazole], for which the “Acute toxicity (deaths)” value in data set [5] (intraperitoneal dose of 100 mgkg) and in data set [5] (peroral dose of 300 mgkg) was “none of the animals were sacrificed” in each case.
On to `CCOCC[S+]([O-])c1ncc(-c2ccccc2)s1` (stereo not shown) [Example 12, 2-[(2-ethoxyethyl)sulfinyl]-5-phenylthiazole], for which, in data set [1], the inhibition in vivo at 30 mg/kg amounted to 52.5%.
Still for that read-out and setting: the result for `CCOCC[S+]([O-])c1nc2cc(C(F)(F)F)ccc2s1` (stereo not shown) [Example 76, 5-trifluoromethyl-2-[(2-ethoxyethyl)sulfinyl]benzothiazole] reads 61.3%.
In data set [1], `CCOCC[S+]([O-])c1nc(-c2ccsc2)cs1` (stereo not shown) [Example 14, 2-[(2-ethoxyethyl)sulfinyl]-4-(3-thienyl)thiazole] registered an inhibition in vivo at 30 mg/kg of 62.7%. For the same molecule, the MIC in data set [3] was determined as 50 µg/mL (≈ 174 µM); in data set [4], 100 µg/mL (≈ 348 µM).
For `[O-][S+](CCN1CCOCC1)c1nc2ccc(Cl)cc2s1` (stereo not shown) [Example 37, 6-chloro-2-[(2-morpholinoethyl)sulfinyl]benzothiazole] the same measures were 78%, 3.13 µg/mL (≈ 9.46 µM) and 6.25 µg/mL (≈ 18.9 µM).
For the molecule `CCN=C(NC#N)NCCSc1nc2cc(Cl)ccc2s1` [Example 27, N-(5-chlorobenzothiazol-2-yl)thioethyl--N'-cyano--N"-ethylguanidine], the MIC in data set [3] and in data set [4] was 12.5 µg/mL (≈ 36.8 µM) in each case.
`CCOCC[S+]([O-])c1nc2cc([N+](=O)[O-])ccc2s1` (stereo not shown) [Example 78, 5-nitro-2-[(2-ethoxyethyl)sulfinyl]benzothiazole] showed an inhibition in vivo at 30 mg/kg in data set [1] of 60.7%. The MIC in data set [3] and in data set [4] was 6.25 µg/mL (≈ 20.8 µM) throughout.
Turning to `COc1ccc2[nH]c([S+]([O-])Cc3ncc(C)c(OC)c3C)nc2c1` (stereo not shown) [Omeprazole, reference compound], in data set [1], the inhibition in vivo at 30 mg/kg stood at 90%.
In turn, `CCNC(=O)NCC[S+]([O-])c1nc2cc(Cl)ccc2s1` (stereo not shown) [Example 22, N-(5-chlorobenzothiazol-2-yl)sulfinylethyl--N'-ethylurea] came in with an inhibition in vivo at 30 mg/kg in data set [1] of 63.1%.
In data set [1], `CCOCC[S+]([O-])c1nc2ccc(Cl)cc2s1` (stereo not shown) [Example 63, 6-chloro-2-[(2-ethoxyethyl)sulfinyl]benzothiazole] had an inhibition in vivo at 30 mg/kg of 76.5%. Further, the MIC in data set [3] stood at 3.13 µg/mL (≈ 10.8 µM); in data set [4], 6.25 µg/mL (≈ 21.6 µM).
As to `CC1(C)S[C@@H]2[C@H](NC(=O)[C@H](N)c3ccccc3)C(=O)N2[C@H]1C(=O)O` [Aminobenzylpenicillin, reference compound], the MIC in data set [3] came out at 0.025 µg/mL (≈ 0.0715 µM); in data set [4] it was 0.2 µg/mL (≈ 0.572 µM).
`[O-][S+](CCN1CCOCC1)c1nc2cccc(Cl)c2s1` (stereo not shown) [Example 35, 7-chloro-2-[(2-morpholinoethyl)sulfinyl]benzothiazole] yielded an inhibition in vivo at 30 mg/kg in data set [1] of 72.1%. Moreover, the MIC in data set [3] amounted to 3.13 µg/mL (≈ 9.46 µM); in data set [4], 6.25 µg/mL (≈ 18.9 µM).
Turning to `O=C(NCCCl)NCCSc1nc2cc(Cl)ccc2s1` [Example 23, N-(5-chlorobenzothiazol-2-yl)thioethyl--N'-(2-chloroethyl)urea], the MIC in data set [3] and in data set [4] was 12.5 µg/mL (≈ 35.7 µM) each time.

As a reminder, the inhibition in vivo is the share of the control response that was lost under treatment. High values mean strong suppression, low ones little suppression.
